{
  "source": "patent US20160339057A1",
  "about": "“NOVEL COMPOSITION METHOD OF USING THE SAME FOR THE TREATMENT OF LYME DISEASE” (priority 2014, published 2016)",
  "key": {"[1]": {"system": "spirochetes of B. garinii", "assay": "Susceptibility of spirochetes, dark-field microscopy", "format": "cell-based, Borrelia garinii CIP103362", "details": "most effective concentration (doxycycline: commonly tested concentration, 250 μg/ml), up to 7 days", "procedure": "(§1) To determine what compound/mixture will inhibit visible growth of B. burgdorferi and B. garinii, a new and accepted micro-dilution method was used according to Sapi et al. Infection and Drug Resistance 2011. Briefly, sterile 1.5 ml test tightly caps screwed tubes containing 1 ml BSK-H medium, supplemented with the test compound of interest were inoculated with 2×10^6 CFU/ml of the homogenous bacterial suspension. The tubes were then incubated at 33° C. and growth was monitored at regular intervals for up to 72 h. The whole experiment was repeated three times for each strain and each concentration. Control cultures were treated with ethanol (i.e. 0.1-0.4 vol/vol) alone. For doxycycline, the final used concentration was 250 μg/m1. Cell growth was assessed by a bacterial Petroff-Hausser counting chamber after the 0 hour, 24 hrs, 48 hrs, 72 hrs and 7 days of incubation using dark field microscopy (direct cell counting), as a standard procedure."}, "[2]": {"system": "rounded forms of B. garinii", "assay": "Susceptibility of rounded forms, SYTO 9 / propidium iodide fluorescent microscopy", "format": "cell-based, Borrelia garinii CIP103362", "details": "most effective concentration, up to 7 days", "procedure": "(§2) To determine what compound/mixture will have the bactericidal effect a fluorescence method was used according to Sapi et al. Infection and Drug Resistance 2011. Briefly, 2×10^6 CFU/ml of the homogenous bacterial suspension was inoculated into each sterile 1.5 ml test tightly caps screwed tubes containing 1 ml BSK-H medium, supplemented with the test compound/mixture of interest. Control cultures were treated with ethanol (i.e. 0.1-0.4 vol/vol) alone. For doxycycline, as a positive control, the final used concentration was 250 μg/m1. The tubes were then incubated at 33° C. and viability was monitored at regular intervals for up to 72 h. The whole experiment was repeated three times for each strain and each concentration. The susceptibility of spirochetes and round body forms to the test compound was then assessed after 24 h, 48 h, 72 h and 7 days by LIVE/DEAD® BacLight™ Bacterial Viability Assay using fluorescent microscopy, were the ratio of live (green) and dead (red) B. burgdorferi and B. garinii morphological forms were calculated."}, "biofilm of B. garinii": {"system": "biofilm of B. garinii", "assay": "Biofilm on extracellular matrix proteins, crystal violet staining", "format": "cell-based, Borrelia garinii CIP103362", "details": "5 extracellular matrix proteins, most effective concentration", "procedure": "(§3) Qualitative effect of the test compounds against biofilm-like colonies of B. burgdorferi and B. garinii was evaluated using commonly used and well accepted crystal violet (CV) staining method, according to protocol provided by Sapi et al. Infection and Drug Resistance 2011. Briefly, for curable effect, 1×10^7 CFU/ml from homogeneous cultures of spirochetes were inoculated in extracellular matrix proteins (i.e. matrigel, collagen type I, fibrinogen, hyaluronan, and chondroitin sulfate) coated four-well chambers and incubated for 1 week, respectively. After the 1 week of incubation, biofilm-like colonies were treated with various compounds/mixtures. For preventive effect, 1×10^7 CFU/ml from homogeneous cultures of spirochetes complemented with various compounds/mixtures were inoculated in extracellular matrix proteins (i.e. matrigel, collagen type I, fibrinogen, hyaluronan, and chondroitin sulfate) coated four-well chambers and incubated for 1 week, respectively. Control wells were treated with ethanol (i.e. 0.1-0.4 vol/vol) alone. For doxycycline, as a positive control, the final used concentration was […]. The chambers were then incubated at 33° C. for 72 h. […] The biofilm-like colonies were carefully washed three times with 1×PBS and 1 ml of methanol was added to each well to extract a dye, which was measured at 595 nm wavelength."}, "[3]": {"system": "biofilm of B. burgdorferi", "assay": "Biofilm on extracellular matrix proteins, crystal violet staining", "format": "cell-based, Borrelia burgdorferi B31", "details": "5 extracellular matrix proteins, most effective concentration", "procedure": "as §3"}, "[4]": {"system": "spirochetes of B. burgdorferi", "assay": "Susceptibility of spirochetes, dark-field microscopy", "format": "cell-based, Borrelia burgdorferi B31", "details": "most effective concentration (doxycycline: commonly tested concentration, 250 μg/ml), up to 7 days", "procedure": "as §1"}, "[5]": {"system": "rounded forms of B. burgdorferi", "assay": "Susceptibility of rounded forms, SYTO 9 / propidium iodide fluorescent microscopy", "format": "cell-based, Borrelia burgdorferi B31", "details": "most effective concentration, up to 7 days", "procedure": "as §2"}},
  "data": [
    {"smiles": "C[C@H]1c2cccc(O)c2C(=O)C2=C(O)[C@]3(O)C(=O)C(C(N)=O)=C(O)[C@@H](N(C)C)[C@@H]3[C@@H](O)[C@@H]21", "note": "[doxycycline]", "values": [
      {"measurement": "decrease of amount of spiral forms", "setting": "[1]", "result": "60-75%"},
      {"measurement": "increase of dead of rounded forms", "setting": "[2]", "result": "5-10%"},
      {"measurement": "rounded forms formation generated", "setting": "[2]", "result": "about 2 times"},
      {"measurement": "biofilm eradicated (curable effect)", "setting": "biofilm of B. garinii; 3 days post-treatment", "result": "5-40%"},
      {"measurement": "biofilm formation prevented (preventive effect)", "setting": "biofilm of B. garinii; after 7 days", "result": "40-60%"},
      {"measurement": "biofilm eradicated (curable effect)", "setting": "[3]; 3 days post-treatment", "result": "5-40%"},
      {"measurement": "biofilm formation prevented (preventive effect)", "setting": "[3]; after 7 days", "result": "40-60%"},
      {"measurement": "decrease of amount of spiral forms", "setting": "[4]", "result": "60-75%"},
      {"measurement": "increase of dead of rounded forms", "setting": "[5]", "result": "5-10%"},
      {"measurement": "rounded forms formation generated", "setting": "[5]", "result": "about 2 times"}
    ]}
  ]
}
